Data published in patent US20260209249A1, “NOVEL TRICYCLIC COMPOUND AS KRAS G12D INHIBITOR, AND USE THEREOF” (SK Biopharmaceuticals Co., priority 2022, published 2026).

Legend:
[1] = target: T1, GDP-KRAS G12D mutant protein (Homo sapiens, UniProt P01116, G12D); assay: Differential scanning fluorimetry (DSF) binding affinity to GDP-KRAS G12D mutant protein; conditions: DSF thermal shift, 10 μM compound, 4 μg KRAS protein
T1 construct: purchased Daegu Gyeongbuk Medical Innovation Foundation (DGMIF), made to order
Method in brief: (§1)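 Each sample held 4 μg recombinant KRAS G12D (GDP- or GppNHp-bound) and 10 μM compound, incubated 30 min at room temperature before adding 2× SYPRO Orange. The GDP form was run in kit buffer, the GppNHp form in 50 mM HEPES pH 7.5. Melt was 25–99 °C at 0.05 °C/s (580/623 nm), reported as ΔTm versus no compound.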

[2] = target: T2, GppNHp-KRAS G12D mutant protein (Homo sapiens, UniProt P01116, G12D); assay: Differential scanning fluorimetry (DSF) binding affinity to GppNHp-KRAS G12D mutant protein; conditions: DSF thermal shift, 10 μM compound, 4 μg KRAS protein, 50 mM HEPES (pH 7.5)
T2 construct: purchased Daegu Gyeongbuk Medical Innovation Foundation (DGMIF), made to order
Method in brief: as §1

Structure (SMILES): C#Cc1c(F)ccc2cc(O)cc(-c3c(F)c4nc(OC[C@@]56CCCN5CC(=C(F)F)C6)nc(N5CC6CCC(C5)N6)c4c4cn(C)nc34)c12 [Example 92, 4-(9-((1R,5S)-3,8-diazabicyclo[3.2.1]octan-3-yl)-7-(((S)-2-(difluoromethylene)tetrahydro-1H-pyrrolizin-7a(5H)-yl)methoxy)-5-fluoro-2-methyl-2H-pyrazolo[4,3-]quinazolin-4-yl)-5-ethynyl-6-fluoronaphthalen-2-ol]
- GDP-KRAS G12D (ΔTmD, ° C.) [1]: 17.61 °C
- GppNHp-KRAS G12D (ΔTmD, ° C.) [2]: 13.02 °C

Structure (SMILES): C#Cc1c(F)ccc2cc(O)cc(-c3c(F)c4nc(OC[C@@]56CCCN5C[C@H](F)C6)nc(N5[C@@H]6CC[C@H]5CNC6)c4c4cn(C)nc34)c12 [Example 103, 4-(9-((1 R,5S)-3,8-diazabicyclo[3.2.1]octan-8-yl)-5-fluoro-7-(((2R,7aS)-2-fluorotetrahydro-1H-pyrrolizin-7a(5H)-yl)methoxy)-2-methyl-2H-pyrazolo[4,3-n]quinazolin-4-yl)-5-ethynyl-6-fluoronaphthalen-2-ol]
- GDP-KRAS G12D (ΔTmD, ° C.) [1]: 14.80 °C
- GppNHp-KRAS G12D (ΔTmD, ° C.) [2]: 11.59 °C

Structure (SMILES): C#Cc1c(F)ccc2cc(O)cc(-c3cc4nc(OC[C@@]56CCCN5CC(=C(F)F)C6)nc(N5[C@@H]6CC[C@H]5CNC6)c4n4ccnc34)c12 [Example 106, 4-(1-((1 R,5S)-3,8-diazabicyclo[3.2.1]octan-8-yl)-3-(((S)-2-(difluoromethylene)tetrahydro-1H-pyrrolizin-7a(5H)-yl)methoxy)imidazo[1′,2′:1,6]pyrido[3,2-d]pyrimidin-6-yl)-5-ethynyl-6-fluoronaphthalen-2-ol]
- GDP-KRAS G12D (ΔTmD, ° C.) [1]: 10.21 °C
- GppNHp-KRAS G12D (ΔTmD, ° C.) [2]: 6.65 °C

Structure (SMILES): CCc1c(F)ccc2cc(O)cc(-c3cc4nc(OC[C@@]56CCCN5CC(=C(F)F)C6)nc(N5[C@@H]6CC[C@H]5CNC6)c4n4ccnc34)c12 [Example 107, 4-(1-((1 R,5S)-3,8-diazabicyclo[3.2.1]octan-8-yl)-3-(((S)-2-(difluoromethylene)tetrahydro-1H-pyrrolizin-7a(5H)-yl)methoxy)imidazo[1′,2′:1,6]pyrido[3,2-d]pyrimidin-6-yl)-5-ethyl-6-fluoronaphthalen-2-ol]
- GDP-KRAS G12D (ΔTmD, ° C.) [1]: 8.91 °C
- GppNHp-KRAS G12D (ΔTmD, ° C.) [2]: 4.32 °C

Structure (SMILES): C#Cc1c(F)ccc2cc(N)cc(-c3cc4nc(OC[C@@]56CCCN5CC(=C(F)F)C6)nc(N5[C@@H]6CC[C@H]5CNC6)c4n4ccnc34)c12 [Example 108, 4-(1-((1 R,5S)-3,8-diazabicyclo[3.2.1]octan-8-yl)-3-(((S)-2-(difluoromethylene)tetrahydro-1H-pyrrolizin-7a(5H)-yl)methoxy)imidazo[1′,2′:1,6]pyrido[3,2-d]pyrimidin-6-yl)-5-ethynyl-6-fluoronaphthalen-2-amine]
- GDP-KRAS G12D (ΔTmD, ° C.) [1]: 8.47 °C
- GppNHp-KRAS G12D (ΔTmD, ° C.) [2]: 5.36 °C

Structure (SMILES): CCc1c(F)ccc2cc(O)cc(-c3cc4nc(OC[C@@]56CCCN5CC(=C(F)F)C6)nc(N5C[C@H]6CC[C@@H](C5)N6)c4n4ccnc34)c12 [Example 109, 4-(1-((1 R,5S)-3,8-diazabicyclo[3.2.1]octan-3-yl)-3-(((S)-2-(difluoromethylene)tetrahydro-1H-pyrrolizin-7a(5H)-yl)methoxy)imidazo[1′,2′:1,6]pyrido[3,2-d]pyrimidin-6-yl)-5-ethyl-6-fluoronaphthalen-2-ol]
- GDP-KRAS G12D (ΔTmD, ° C.) [1]: 10.51 °C
- GppNHp-KRAS G12D (ΔTmD, ° C.) [2]: 4.28 °C
